Results as given in ChEMBL document CHEMBL1149411, “Application of fragment screening and fragment linking to the discovery of novel thrombin inhibitors” (J Med Chem, 2006).
Blank lines part the entries; values can stand above or below the compound they belong to. Calls of active or inactive are those of the source. The rule behind the calls is not given here.

Columns and labels:
Prothrombin [1] = molecular target: T1, Prothrombin (Homo sapiens, UniProt P00734); test: Inhibitory activity against Thrombin
Trypsin = Trypsin (Homo sapiens, UniProt P07477+P07478+P35030); test: Inhibitory activity against trypsin; format: protein assay
Prothrombin [2] = molecular target: T1, Prothrombin; test: Inhibition of Thrombin at 300 uM

IC50 (Prothrombin [1]): 1.4 nM
SMILES: COc1cc(C)c(S(=O)(=O)NC[C@@H](O)[C@H](Cc2ccccc2)NCc2cc(Cl)ccc2-n2cnnn2)c(C)c1C

IC50 (Trypsin): > 100 µM
SMILES: COc1cc(C)c(S(=O)(=O)NC[C@@H](O)[C@H](Cc2ccccc2)NCc2cccc(Cl)c2)c(C)c1C

SMILES: NCc1cccc(Cl)c1
inhibition (Prothrombin [2]): inactive
